Assays:
Type in all cases: cell-based, human
[1] = test system: MMP-9; experiment: MMP activity test using zymogram; details: 10 ng HGF-treated group compared to the control
Method: Proteins were quantitified from each of the supernatants, 30 μg of each supernatant was taken, and 15 μl APMA was added to each of the supernatants and activated at 37° C. for 1 hour. The activated test samples were added, and treated with MightySlim™ SX 250 (Hoefer, Calif., USA) for 2 4 hours and 48 hours. Then, the resulting test samples were ground to obtain cytoplasm samples. 10 μl of the cytoplasm samples were taken from these cytoplasm samples and added to sample buffers, respectively, and kept for 10 minutes. Then, the cytoplasm samples were added to previously-prepared gels, and then reacted at 4° C. and 125V for 120 minutes using Novex XCell II. The resulting cytoplasm samples were kept in a renaturing buffer at a room temperature for 60 minutes, and, after a developing buffer was replaced by 100 ml of fresh developing buffer, the cytoplasm samples were kept in the fresh developing buffer for 18 hours at 37° C. while stirring. Then, the cytoplasm samples were stained with Coomassie blue for 3 hours, washed with water, and observed at intervals of 10 minutes. In this case, a the gels were destained with a destaining solution (Methanol 400 ml, Acetic acid 100 ml, Distilled water 500 ml), and photographs of the gels were then taken using an image analyzer.

[2] = test system: MMP-2; experiment: Expression level test of MMP using RT-PCR; details: for expression level of the MMP-2: 24 and 48 hours
Method: 1 ml of a cancer cell line was homogenated in a TRIzol (GIBCOBRL, Grand Island, N.Y., USA) reagent, and the total RNA was extracted from the cancer cell line. 2 μg of the total RNA extracted from the hypopharyngeal cancer cell line was put into reaction mixtures of an Omniscript Reverse Transcriptase kit (20511, Qiagen Germany) (including 2.0 μl of 10× Buffer RT, 2.0 μl of dNTP Mix (5 mM each dNTP), 2.0 μl of Oligo-dT primer (10 μM), 1.0 μl of a RNase inhibitor (10 units/μl), 2 units of Omniscript Reverse Transcriptase and 20 μl of RNase-free water), and reverse transcribed at 37° C. for 60 minutes and at 94° C. for 5 minutes to synthesize cDNA. PCR was carried out using Minicycler™ (MJ research, USA), and the synthesized cDNA was added together with 1 unit of Taq DNA polymerase (Roche Diagnostics Co, Indianapolis, USA) and each primer, and then amplified.
DNA sequences of MMP-2 primer and MMP-9 primer used in this experiment were listed as follows.
A PCR procedure was carried out in one initial denaturation cycle at 96° C. for 3 minutes, 30 amplification cycles at 96° C. for 30 seconds, at 55° C. for 30 seconds and at 72° C. for 30 seconds, and one extension cycle at 72° C. for 5 minutes.

[3] = test system: FaDu cells; experiment: Proliferative assay of tumor cell; details: fifth day after the treatment, compared to the DMSO control
Method: In order to evaluate effects of selected aquatic microbial extracts having an anti-cancer effect, FaDu cells (1×10^5/well) treated with 0, 10 and 30 ng/ml of HGF were treated with an aquatic Bacillus sp. strain extract (concentration: 1, 10 and 100 μM), and then incubated for 5 days. Then, 1, 3 and 5-day growth of the FaDu cells were determined by measuring the cell number of the FaDu cells using a haemocytometer. In this case, a medium was replaced by fresh medium. This experiment was repeated five times to statistically analyze the cell number difference according to the amounts of HGF and the extract.

For “HGF: hepatocyte growth factor used to stimulate cancer cells”, the “expression of the MMP-9 (MMP activity evaluation)” value [1] was “slightly increased”, the “expression level of the MMP-2” value ([2]; 10 ng/ml HGF, vs control) was “not significantly different” and the “expression level of the MMP-2” value ([2]; 30 ng/ml HGF) was “increased”. The “expression level between the control and the HGF-treated groups when MMP-2 was treated with the HGF” value ([2]; second statement, printed MMP-2) was “no distinct difference” and the “cell proliferation on stimulation with hepatocyte growth factor” value [3] was “statistically significant cell proliferation”.
